Assays:
panel of 486 kinases = assay: SelectScreen Whole Panel selectivity profile; type: biochemical; conditions: 1 µM
Protocol: We further evaluated the selectivity profile of compound 55 on a larger panel of kinases (SelectScreen Whole Panel, Life Technologies). The inhibition profile of 55, evaluated at 1 μM, is depicted on a dendrogram on Figure 3 where kinases inhibited by a minimum of 80% are shown. A full list of the kinases tested is shown on Table S1 in supplementary information.

U-2 OS cells = assay: Cell cycle analysis by flow cytometry; type: cell-based, human; conditions: 1 µM, 24 h
Protocol: After treatment with the compounds, cells were trypsinized and washed once in PBS. Cells were fixed for 1 h in ice-cold 70% ethanol, then washed once in PBS, centrifuged at 200 g and resuspended in a PBS buffer containing 100 µg/ml RNase A (Thermo Scientific) and 40 µg/ml propidium iodide (Life Technologies). DNA content was determined using a flow cytometer Attune^TM NxT (Thermofisher) and ten thousand events were collected in each run. The data were analysed using FCS Express 7 Pro software (De Novo).

COc1ccc2[nH]c3c(=O)[nH]c4ccc(O)cc4c3c2c1 [Compound 55, 2-Hydroxy-10-methoxy-5,7-dihydro-6H-indolo[2,3-c]quinolin-6-one]
Number of the 486 kinases inhibited by >50% (panel of 486 kinases): 159
% of cycling cells G2/M (U-2 OS cells; DMSO control 6%): 20%
% of cycling cells S (U-2 OS cells; DMSO control 44%): 44%
% of cycling cells G1 (U-2 OS cells; DMSO control 50%): 36%

Reference: publication PMC9186362, “Design and biological evaluation of substituted 5,7-dihydro-6H-indolo[2,3-c]quinolin-6-one as novel selective Haspin inhibitors” (Journal of Enzyme Inhibition and Medicinal Chemistry, 2022)
